Experimental findings from patent publication US12448394B2, “Heterocyclic pyrazole derivatives as type III receptor tyrosine kinase inhibitors” (DEVELOPMENT CENTER FOR BIOTECHNOLOGY, priority 2019, dated 2025) are described below.

In assay [1] the test system is A375 melanoma cell with BRAF V600E mutation. Description: A375 cell proliferation assay (counter screen). The assay is classed as cell-based, human. The following applies: Homo sapiens, A-375, A375 cells, 72 hours treatment, CellTiter96, read-out: anti-proliferation activity A375 BRAF V600E, IC50 ranking. In outline: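 A375 cells (BRAF V600E) seeded at 2000 cells/well in DMEM with 10% FBS, settled overnight at 37° C, 5% CO2, then exposed to increasing compound concentrations for 72 hours. Viability read by MTS-type CellTiter96 AQueous reagent, absorbance at 490 nm after 2–4 hours.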

Assay [2] has as its system THP-1 human acute monocytic leukemia cell with NRAS G12D mutation. The experiment in a line: THP-1 cell proliferation assay (counter screen). Type of assay: cell-based. Particulars: Homo sapiens, THP-1 cells, 72 hours treatment, CellTiter96, read-out: anti-proliferation activity THP-1 NRAS N12D, IC50 ranking. In outline: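 THP-1 cells (NRAS G12D, growth independent of class III RTK signaling) seeded at 5000 cells/well overnight, then exposed to increasing compound concentrations for 72 h at 37° C, 5% CO2. Viability read by CellTiter96 AQueous One reagent (2–4 h) as absorbance at 490 nm.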
Background: The purpose of a counterscreen is to sort out artefacts and off-target activity.

The target of a further assay is T1, MET kinase (Homo sapiens, UniProt P08581).
T1 construct: purchased SignalChem
Description: MET kinase assay (AlphaScreen, counter screen). Particulars: read-out: Ranking of IC50 values, MET. Type of assay: biochemical. Summed up:
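Recombinant MET kinase (1 ng) phosphorylated biotinylated poly(Glu4:Tyr1) with […] ATP (so in the source) in MOPS pH 7.0 buffer with 10 mM MgCl2, 45 min at 30 °C, stopped with EDTA. Product read by AlphaScreen; IC50 from serial dilutions run in duplicate.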

For the next assay, the target named is T2, PDGFRα kinase (Homo sapiens, UniProt P16234).
T2 construct: purchased SignalChem
The experiment in a line: PDGFRα kinase assay (AlphaScreen). Type of assay: biochemical. Particulars: read-out: Ranking of IC50 values, PDGFRα. Summed up:
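Recombinant PDGFRα (1.5 ng) phosphorylated biotinylated poly(Glu4:Tyr1) with 10 μM ATP in MOPS pH 7.0 with 10 mM MgCl2, 30 min at 30 °C, stopped with EDTA. Product detected by AlphaScreen; IC50 from serial dilutions run in duplicate.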

Structures are written as SMILES.

T2 sequence (P16234 24-1089): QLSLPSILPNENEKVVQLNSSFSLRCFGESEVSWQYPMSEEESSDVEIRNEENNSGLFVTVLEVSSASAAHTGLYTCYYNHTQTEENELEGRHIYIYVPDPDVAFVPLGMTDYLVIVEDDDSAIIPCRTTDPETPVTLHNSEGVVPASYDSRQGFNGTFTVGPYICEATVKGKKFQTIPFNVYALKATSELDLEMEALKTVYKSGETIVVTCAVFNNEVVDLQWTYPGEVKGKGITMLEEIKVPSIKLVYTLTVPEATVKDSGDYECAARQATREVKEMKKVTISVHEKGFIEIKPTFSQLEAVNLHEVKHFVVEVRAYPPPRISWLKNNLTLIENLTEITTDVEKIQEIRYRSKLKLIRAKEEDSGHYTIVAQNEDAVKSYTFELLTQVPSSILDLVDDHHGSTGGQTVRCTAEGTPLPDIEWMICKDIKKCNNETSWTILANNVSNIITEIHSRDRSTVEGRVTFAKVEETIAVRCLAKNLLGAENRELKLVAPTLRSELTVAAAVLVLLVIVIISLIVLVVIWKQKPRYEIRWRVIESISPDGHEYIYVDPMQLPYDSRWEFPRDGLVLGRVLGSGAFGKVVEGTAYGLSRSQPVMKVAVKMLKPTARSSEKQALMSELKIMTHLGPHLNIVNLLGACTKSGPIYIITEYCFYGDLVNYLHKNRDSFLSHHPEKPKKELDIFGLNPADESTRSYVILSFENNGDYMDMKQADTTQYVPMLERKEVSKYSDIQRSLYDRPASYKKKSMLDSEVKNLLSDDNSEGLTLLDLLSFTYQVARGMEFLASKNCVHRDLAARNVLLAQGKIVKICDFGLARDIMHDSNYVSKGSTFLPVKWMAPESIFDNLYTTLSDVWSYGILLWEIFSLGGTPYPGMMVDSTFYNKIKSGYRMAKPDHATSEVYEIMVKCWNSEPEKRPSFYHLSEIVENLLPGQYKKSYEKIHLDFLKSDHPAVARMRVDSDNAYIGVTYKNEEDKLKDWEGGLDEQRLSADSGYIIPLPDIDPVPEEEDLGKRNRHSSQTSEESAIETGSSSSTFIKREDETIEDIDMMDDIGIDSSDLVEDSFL
T1 sequence (P08581 25-1390): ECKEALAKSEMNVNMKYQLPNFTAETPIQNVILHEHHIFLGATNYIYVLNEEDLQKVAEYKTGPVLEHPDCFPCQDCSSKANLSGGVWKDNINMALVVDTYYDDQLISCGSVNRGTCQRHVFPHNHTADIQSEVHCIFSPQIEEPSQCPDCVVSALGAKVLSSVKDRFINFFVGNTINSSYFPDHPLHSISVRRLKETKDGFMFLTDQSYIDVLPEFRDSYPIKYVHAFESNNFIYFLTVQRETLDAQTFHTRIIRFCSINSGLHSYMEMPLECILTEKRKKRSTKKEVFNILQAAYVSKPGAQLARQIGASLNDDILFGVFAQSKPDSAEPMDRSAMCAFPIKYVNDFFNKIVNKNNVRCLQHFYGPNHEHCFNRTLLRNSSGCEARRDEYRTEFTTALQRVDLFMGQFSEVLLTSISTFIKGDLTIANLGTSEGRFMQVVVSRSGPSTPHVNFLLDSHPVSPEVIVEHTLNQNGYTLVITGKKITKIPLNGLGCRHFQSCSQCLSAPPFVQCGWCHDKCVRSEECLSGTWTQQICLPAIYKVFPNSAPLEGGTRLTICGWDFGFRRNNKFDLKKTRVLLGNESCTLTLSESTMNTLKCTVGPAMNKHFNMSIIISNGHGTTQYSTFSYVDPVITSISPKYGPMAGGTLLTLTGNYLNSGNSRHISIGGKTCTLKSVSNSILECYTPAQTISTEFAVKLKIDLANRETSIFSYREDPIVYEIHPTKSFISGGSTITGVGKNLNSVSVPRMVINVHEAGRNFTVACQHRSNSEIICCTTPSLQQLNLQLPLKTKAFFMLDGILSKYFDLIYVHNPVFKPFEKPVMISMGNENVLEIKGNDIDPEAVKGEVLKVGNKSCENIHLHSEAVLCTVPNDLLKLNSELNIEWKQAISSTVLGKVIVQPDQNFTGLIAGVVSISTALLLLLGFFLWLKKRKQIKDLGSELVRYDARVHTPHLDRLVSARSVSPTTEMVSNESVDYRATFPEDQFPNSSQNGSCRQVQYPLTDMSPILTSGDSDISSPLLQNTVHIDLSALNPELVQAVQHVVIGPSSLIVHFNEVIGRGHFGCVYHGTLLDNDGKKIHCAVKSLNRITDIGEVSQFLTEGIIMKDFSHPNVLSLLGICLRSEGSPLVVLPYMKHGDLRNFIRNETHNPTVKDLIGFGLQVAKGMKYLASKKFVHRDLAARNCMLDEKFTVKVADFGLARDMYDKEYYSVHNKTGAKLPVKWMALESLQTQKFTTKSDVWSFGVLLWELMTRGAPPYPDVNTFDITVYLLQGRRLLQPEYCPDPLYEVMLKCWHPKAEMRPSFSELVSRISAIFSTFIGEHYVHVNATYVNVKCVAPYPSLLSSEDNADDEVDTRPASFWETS

Take `Cn1ncc2ccc(-c3n[nH]c4c3Cc3sc(-c5ccc(CN6CCOCC6)nc5)cc3-4)cc21` [Compound 10, 4-((5-(3-(1-methyl-1H-indazol-6-yl)-1,4-dihydro-thieno[2′,3′:4,5]cyclopenta [1,2-c]pyrazol-6-yl)pyridin-2-yl)methyl)morpholine]: the IC50 in assay [1] was more than 10 µM; in assay [2], more than 10 µM; at MET kinase, more than 1 µM; at PDGFRα kinase, 0.001 to 0.01 µM.

For `Cn1ncc2ccc(-c3n[nH]c4c3Cc3sc(-c5ccc(CN6CCCOCC6)cc5)cc3-4)cc21` [Compound 97, 4-(4-(3-(1-methyl-1H-indazol-6-yl)-1,4-dihydro-thieno[2′,3′:4,5]cyclopenta [1,2-c]pyrazol-6-yl)benzyl)-1,4-oxazepane], the IC50 in assay [1] is 1 to 10 µM; in assay [2], 1 to 10 µM; at MET kinase, more than 1 µM; on PDGFRα kinase it was 0.03 to 0.1 µM.

For `Cn1ncc2ccc(-c3n[nH]c4c3Cc3sc(-c5cccc(CN6CCOCC6)c5)cc3-4)cc21` [Compound 13, 4-(3-(3-(1-methyl-1H-indazol-6-yl)-1,4-dihydro-thieno[2′,3′:4,5]cyclopenta [1,2-c]pyrazol-6-yl)benzyl) morpholine], the IC50 in assay [1] is more than 10 µM; in assay [2], more than 10 µM; at MET kinase it was more than 1 µM; on PDGFRα kinase it was 0.01 to 0.03 µM.

Take `Cn1ncc2ccc(-c3n[nH]c4c3Cc3sc(-c5cncc(C(=O)N6CCOCC6)c5)cc3-4)cc21` [Compound 31, (5-(3-(1-methyl-1H-indazol-6-yl)-1,4-dihydrothieno[2′,3′:4,5]cyclopenta[1,2-c]pyrazol-6-yl)pyridin-3-yl) (morpholino)methanone]: the IC50 in assay [1] is 1 to 10 µM; in assay [2], 1 to 10 µM; at MET kinase, more than 1 µM; on PDGFRα kinase it was 0.1 to 0.3 µM.

Regarding `CC1C(=O)N(C)CCN1Cc1ccc(-c2cc3c(s2)Cc2c(-c4ccc5cnn(C)c5c4)n[nH]c2-3)cc1` (stereo not shown) [Compound 65, 1,3-dimethyl-4-(4-(3-(1-methyl-1H-indazol-6-yl)-1,4-dihydrothieno [2′,3′:4,5]cyclopenta [1,2-c]pyrazol-6-yl)benzyl)piperazin-2-one], the IC50 was more than 10 µM in assay [1], more than 10 µM in assay [2], more than 1 µM on MET kinase and 0.001 to 0.01 µM on PDGFRα kinase.

Turning to `Cn1ncc2ccc(-c3n[nH]c4c3Cc3sc(-c5cc(C(=O)N6CCOCC6)ccn5)cc3-4)cc21` [Compound 56, (2-(3-(1-methyl-1H-indazol-6-yl)-1,4-dihydro-thieno[2′,3′:4,5]cyclopenta [1,2-c]pyrazol-6-yl)pyridin-4-yl)(morpholino) methanone], the IC50 in assay [1] is more than 10 µM; in assay [2], more than 10 µM; at MET kinase, more than 1 µM; on PDGFRα kinase, 0.001 to 0.01 µM.

Turning to `Cn1ncc2ccc(-c3n[nH]c4c3Cc3sc(-c5cnc(C(=O)N6CCOCC6)nc5)cc3-4)cc21` [Compound 41, (5-(3-(1-methyl-1H-indazol-6-yl)-1,4-dihydrothieno[2′,3′:4,5]cyclopenta[1,2-c]pyrazol-6-yl)pyrimidin-2-yl) (morpholino)methanone], the IC50 is more than 10 µM in assay [1], more than 10 µM in assay [2], more than 1 µM on MET kinase and 0.01 to 0.03 µM on PDGFRα kinase.

For `Cn1ncc2ccc(-c3n[nH]c4c3Cc3sc(-c5cnc(N)nc5)cc3-4)cc21` [Compound 45, 5-(3-(1-methyl-1H-indazol-6-yl)-1,4-dihydrothieno [2′,3′:4,5]cyclopenta[l,2-c]pyrazol-6-yl)pyrimidin-2-amine], the IC50 in assay [1] was more than 10 µM; in assay [2], more than 10 µM; at MET kinase, more than 1 µM; at PDGFRα kinase, 0.01 to 0.03 µM.

`Cn1ncc2ccc(-c3n[nH]c4c3Cc3sc(-c5ccc(CCN6CCOCC6=O)cc5)cc3-4)cc21` [Compound 66, 4-(4-(3-(1-methyl-1H-indazol-6-yl)-1,4-dihydro-thieno[2′,3′:4,5]cyclopenta [1,2-c]pyrazol-6-yl)phenethyl)morpholin-3-one]: the IC50 is more than 10 µM in assay [1], more than 10 µM in assay [2], more than 1 µM at MET kinase and more than 1 µM on PDGFRα kinase.

`Cn1ncc2ccc(-c3n[nH]c4c3Cc3sc(C#CCN5CCOCC5)cc3-4)cc21` [Compound 71, 4-(3-(3-(1-methyl-1H-indazol-6-yl)-1,4-dihydro-thieno[2′,3′:4,5]cyclopenta [1,2-c]pyrazol-6-yl)prop-2-yn-1-yl)morpholine]: the IC50 in assay [1] is 1 to 10 µM; in assay [2], 1 to 10 µM; at MET kinase, more than 1 µM; at PDGFRα kinase it was 0.03 to 0.1 µM.

Consider `Cn1ncc2ccc(-c3n[nH]c4c3Cc3sc(-c5ccc(CN6CCOCC6)cc5)cc3-4)cc21` [Compound 8, 4-(4-(3-(1-methyl-1H-indazol-6-yl)-1,4-dihydro-thieno[2′,3′:4,5]cyclopenta [1,2-c]pyrazol-6-yl)benzyl) morpholine], for which the IC50 is more than 10 µM in assay [1], more than 10 µM in assay [2], more than 1 µM on MET kinase and 0.001 to 0.01 µM at PDGFRα kinase.

Turning to `Cn1ncc2ccc(-c3n[nH]c4c3Cc3sc(-c5ccc(CN6CCNC(=O)C6)cc5)cc3-4)cc21` [Compound 63, 4-(4-(3-(1-methyl-1H-indazol-6-yl)-1,4-dihydro-thieno[2′,3′:4,5]cyclopenta [1,2-c]pyrazol-6-yl)benzyl)piperazin-2-one], the IC50 in assay [1] is more than 10 µM; in assay [2] it was more than 10 µM; at MET kinase, more than 1 µM; on PDGFRα kinase it was 0.001 to 0.01 µM.

Take `Cn1ncc2ccc(-c3n[nH]c4c3Cc3sc(-c5ccc(CN6CCC(N7CCOCC7)CC6)cc5)cc3-4)cc21` [Compound 80, 4-(1-(4-(3-(1-methyl-1H-indazol-6-yl)-1,4-dihydro-thieno[2′,3′:4,5]cyclopenta [1,2-c]pyrazol-6-yl)benzyl)piperidin-4-yl) morpholine]: the IC50 was more than 10 µM in assay [1], more than 10 µM in assay [2], 0.3 to 1 µM at MET kinase and 0.001 to 0.01 µM at PDGFRα kinase.

Regarding `Cn1ncc2ccc(-c3n[nH]c4c3Cc3sc(-c5ccc(C(=O)N6CCOCC6)cc5)cc3-4)cc21` [Compound 21, (4-(3-(1-methyl-1H-indazol-6-yl)-1,4-dihydro-thieno[2′,3′:4,5]cyclopenta [1,2-c]pyrazol-6-yl)phenyl) (morpholino)methanone], the IC50 in assay [1] is more than 10 µM; in assay [2] it was more than 10 µM; on MET kinase, more than 1 µM; at PDGFRα kinase, 0.001 to 0.01 µM.

As for `Cn1ncc2ccc(-c3n[nH]c4c3Cc3sc(-c5ccc(CN6CCOCC6=O)cc5)cc3-4)cc21` [Compound 59, 4-(4-(3-(1-methyl-1H-indazol-6-yl)-1,4-dihydro-thieno[2′,3′:4,5]cyclopenta [1,2-c]pyrazol-6-yl)benzyl)morpholin-3-one], the IC50 in assay [1] is more than 10 µM; in assay [2], more than 10 µM; on MET kinase it was more than 1 µM; at PDGFRα kinase it was 0.001 to 0.01 µM.

On to `Cn1ncc2ccc(-c3n[nH]c4c3Cc3sc(-c5cccc(OCCN6CCOCC6)c5)cc3-4)cc21` [Compound 70, 4-(2-(3-(3-(1-methyl-1H-indazol-6-yl)-1,4-dihydro-thieno[2′,3′:4,5]cyclopenta [1,2-c]pyrazol-6-yl)phenoxy)ethyl)morpholine], for which the IC50 in assay [1] is more than 10 µM; in assay [2], more than 10 µM; on MET kinase it was more than 1 µM; on PDGFRα kinase, 0.01 to 0.03 µM.

Regarding `CC(C)Cn1ncc2ccc(-c3n[nH]c4c3Cc3sc(-c5ccc(CN6CCOCC6)cc5)cc3-4)cc21` [Compound 35, 4-(4-(3-(1-isobutyl-1H-indazol-6-yl)-1,4-dihydro-thieno[2′,3′:4,5]cyclopenta [1,2-c]pyrazol-6-yl)benzyl)morpholine], the IC50 is more than 10 µM in assay [1], 1 to 10 µM in assay [2], more than 1 µM at MET kinase and 0.03 to 0.1 µM on PDGFRα kinase.

Regarding `c1cc(-c2cc3c(s2)Cc2c(-c4ccc5cn[nH]c5c4)n[nH]c2-3)ccc1CN1CCOCC1` [Compound 6, 4-(4-(3-(1H-indazol-6-yl)-1,4-dihydrothieno[2′,3′:4,5]cyclopenta[1,2-c]pyrazol-6-yl)benzyl)morpholine], the IC50 is more than 10 µM in assay [1], more than 10 µM in assay [2], more than 1 µM on MET kinase and 0.001 to 0.01 µM at PDGFRα kinase.

As to `Cn1ncc2ccc(-c3n[nH]c4c3Cc3sc(-c5ccc(CN6CCSCC6)cc5)cc3-4)cc21` [Compound 39, 3-(1-methyl-1H-indazol-6-yl)-6-(4-(thiomorpho-linomethyl)phenyl)-1,4-dihydrothieno[2′,3′:4,5] cyclopenta[1,2-c]pyrazole], the IC50 in assay [1] is more than 10 µM; in assay [2], more than 10 µM; on MET kinase it was more than 1 µM; at PDGFRα kinase, 0.01 to 0.03 µM.
